We go through 16 molecules from ChEMBL document CHEMBL5338761 (J Med Chem, 2023).

For orientation: IC50 means the concentration that gives 50% inhibition. The term inhibition denotes the drop in the measured response relative to a control, in per cent.

For experiment [1], the target named is T1, DNA polymerase theta (Homo sapiens, UniProt O75417). The experiment in a line: Inhibition of POLQ (unknown origin) incubated for 15 mins in presence of ATP and NADPH by absorbance based analysis.
Experiment [2] has as its target T1, DNA polymerase theta. The experiment in a line: Inhibition of POLQ (unknown origin). It counts as single protein.
For experiment [3], the target named is T1, DNA polymerase theta. Put plainly: Inhibition of POLQ PD (unknown origin) (1819 to 2590 residues) incubated for 15 mins by fluorescence based analysis.
The target of experiment [4] is T1, DNA polymerase theta. Put plainly: Inhibition of POLQ (unknown origin) (1 to 987 residues) using […] as substrate incubated for 30 mins in presence of ATP relative to control.
The target in experiment [5] is T1, DNA polymerase theta. The experiment in a line: Inhibition of POLQ PD (unknown origin) (1819 to 2590 residues) incubated for 15 mins by luminescence based analysis.
The target of experiment [6] is T1, DNA polymerase theta. The experiment in a line: Inhibition of POLQ PD (unknown origin) (1819 to 2590 residues) by fluorescence based analysis.
Experiment [7] relates to TERT-RPE1. Put plainly: Antiproliferative activity against BRCA1 knockout human RPE-1 cells assessed as inhibition of cell growth by CellTiter-Glo assay. It counts as functional, cell-based. A general note: ATP-based viability assays read luminescence as a measure of living cells.
Experiment [8] has as its system TERT-RPE1. Put plainly: Antiproliferative activity against P53 knockout human RPE-1 cells assessed as inhibition of cell growth by CellTiter-Glo assay. The experiment is classed as functional, cell-based.
The subject of experiment [9] is TERT-RPE1. The experiment in a line: Antiproliferative activity against P53 and BRCA1 knockout human RPE-1 cells assessed as inhibition of cell growth by CellTiter-Glo assay. It counts as functional, cell-based.
Experiment [10] deals with TERT-RPE1. The experiment in a line: Antiproliferative activity against BRCA1 knockout human RPE-1 cells assessed as fold change in rucaparib IC50 by CellTiter-Glo assay. The experiment is classed as functional.
In experiment [11] the test system is TOV21G. The experiment in a line: Antiproliferative activity against HR knockout human TOV-21G cells assessed as fold change in olaparib IC50 by CellTiter-Glo assay. The experiment is classed as functional.
Experiment [12] deals with T1, DNA polymerase theta. The experiment in a line: Inhibition of N-terminal/C-termianl Flag-tagged POLQ (unknown origin) (2 to 2590 residues) expressed in baculovirus incubated for 30 mins by fluorescence based analysis.
Experiment [13] deals with TERT-RPE1. The experiment in a line: Antiproliferative activity against human RPE-1 cells expressing wild type BRCA1 assessed as inhibition of cell growth by CellTiter-Glo assay. The experiment is classed as functional, cell-based.
For experiment [14], the system named is MCF7. Put plainly: Antiproliferative activity against human MCF7 cells assessed as inhibition of cell growth incubated for 6 days by CellTiter-Glo assay. The experiment is classed as functional, cell-based. Particulars: MCF7, 144 h.
Experiment [15] deals with HCT-116. Put plainly: Antiproliferative activity against human HCT-116 cells assessed as inhibition of cell growth incubated for 6 days by CellTiter-Glo assay. The experiment is classed as functional, cell-based. The note with it: HCT-116, 144 h.
In experiment [16] the test system is PC-3. The experiment in a line: Antiproliferative activity against human PC-3 cells assessed as inhibition of cell growth incubated for 6 days by CellTiter-Glo assay. It counts as functional, cell-based. The note with it: PC-3, 144 h.
Experiment [17] deals with A549. Put plainly: Antiproliferative activity against human A549 cells assessed as inhibition of cell growth incubated for 6 days by CellTiter-Glo assay. The experiment is classed as functional, cell-based. Particulars: A549, 144 h.
Experiment [18] in a line: Antiproliferative activity against human MDA-1986 cells assessed as inhibition of cell growth incubated for 6 days by CellTiter-Glo assay. Particulars: MDA1986, 144 h. It counts as functional, cell-based.

T1 sequence (O75417 whole entry): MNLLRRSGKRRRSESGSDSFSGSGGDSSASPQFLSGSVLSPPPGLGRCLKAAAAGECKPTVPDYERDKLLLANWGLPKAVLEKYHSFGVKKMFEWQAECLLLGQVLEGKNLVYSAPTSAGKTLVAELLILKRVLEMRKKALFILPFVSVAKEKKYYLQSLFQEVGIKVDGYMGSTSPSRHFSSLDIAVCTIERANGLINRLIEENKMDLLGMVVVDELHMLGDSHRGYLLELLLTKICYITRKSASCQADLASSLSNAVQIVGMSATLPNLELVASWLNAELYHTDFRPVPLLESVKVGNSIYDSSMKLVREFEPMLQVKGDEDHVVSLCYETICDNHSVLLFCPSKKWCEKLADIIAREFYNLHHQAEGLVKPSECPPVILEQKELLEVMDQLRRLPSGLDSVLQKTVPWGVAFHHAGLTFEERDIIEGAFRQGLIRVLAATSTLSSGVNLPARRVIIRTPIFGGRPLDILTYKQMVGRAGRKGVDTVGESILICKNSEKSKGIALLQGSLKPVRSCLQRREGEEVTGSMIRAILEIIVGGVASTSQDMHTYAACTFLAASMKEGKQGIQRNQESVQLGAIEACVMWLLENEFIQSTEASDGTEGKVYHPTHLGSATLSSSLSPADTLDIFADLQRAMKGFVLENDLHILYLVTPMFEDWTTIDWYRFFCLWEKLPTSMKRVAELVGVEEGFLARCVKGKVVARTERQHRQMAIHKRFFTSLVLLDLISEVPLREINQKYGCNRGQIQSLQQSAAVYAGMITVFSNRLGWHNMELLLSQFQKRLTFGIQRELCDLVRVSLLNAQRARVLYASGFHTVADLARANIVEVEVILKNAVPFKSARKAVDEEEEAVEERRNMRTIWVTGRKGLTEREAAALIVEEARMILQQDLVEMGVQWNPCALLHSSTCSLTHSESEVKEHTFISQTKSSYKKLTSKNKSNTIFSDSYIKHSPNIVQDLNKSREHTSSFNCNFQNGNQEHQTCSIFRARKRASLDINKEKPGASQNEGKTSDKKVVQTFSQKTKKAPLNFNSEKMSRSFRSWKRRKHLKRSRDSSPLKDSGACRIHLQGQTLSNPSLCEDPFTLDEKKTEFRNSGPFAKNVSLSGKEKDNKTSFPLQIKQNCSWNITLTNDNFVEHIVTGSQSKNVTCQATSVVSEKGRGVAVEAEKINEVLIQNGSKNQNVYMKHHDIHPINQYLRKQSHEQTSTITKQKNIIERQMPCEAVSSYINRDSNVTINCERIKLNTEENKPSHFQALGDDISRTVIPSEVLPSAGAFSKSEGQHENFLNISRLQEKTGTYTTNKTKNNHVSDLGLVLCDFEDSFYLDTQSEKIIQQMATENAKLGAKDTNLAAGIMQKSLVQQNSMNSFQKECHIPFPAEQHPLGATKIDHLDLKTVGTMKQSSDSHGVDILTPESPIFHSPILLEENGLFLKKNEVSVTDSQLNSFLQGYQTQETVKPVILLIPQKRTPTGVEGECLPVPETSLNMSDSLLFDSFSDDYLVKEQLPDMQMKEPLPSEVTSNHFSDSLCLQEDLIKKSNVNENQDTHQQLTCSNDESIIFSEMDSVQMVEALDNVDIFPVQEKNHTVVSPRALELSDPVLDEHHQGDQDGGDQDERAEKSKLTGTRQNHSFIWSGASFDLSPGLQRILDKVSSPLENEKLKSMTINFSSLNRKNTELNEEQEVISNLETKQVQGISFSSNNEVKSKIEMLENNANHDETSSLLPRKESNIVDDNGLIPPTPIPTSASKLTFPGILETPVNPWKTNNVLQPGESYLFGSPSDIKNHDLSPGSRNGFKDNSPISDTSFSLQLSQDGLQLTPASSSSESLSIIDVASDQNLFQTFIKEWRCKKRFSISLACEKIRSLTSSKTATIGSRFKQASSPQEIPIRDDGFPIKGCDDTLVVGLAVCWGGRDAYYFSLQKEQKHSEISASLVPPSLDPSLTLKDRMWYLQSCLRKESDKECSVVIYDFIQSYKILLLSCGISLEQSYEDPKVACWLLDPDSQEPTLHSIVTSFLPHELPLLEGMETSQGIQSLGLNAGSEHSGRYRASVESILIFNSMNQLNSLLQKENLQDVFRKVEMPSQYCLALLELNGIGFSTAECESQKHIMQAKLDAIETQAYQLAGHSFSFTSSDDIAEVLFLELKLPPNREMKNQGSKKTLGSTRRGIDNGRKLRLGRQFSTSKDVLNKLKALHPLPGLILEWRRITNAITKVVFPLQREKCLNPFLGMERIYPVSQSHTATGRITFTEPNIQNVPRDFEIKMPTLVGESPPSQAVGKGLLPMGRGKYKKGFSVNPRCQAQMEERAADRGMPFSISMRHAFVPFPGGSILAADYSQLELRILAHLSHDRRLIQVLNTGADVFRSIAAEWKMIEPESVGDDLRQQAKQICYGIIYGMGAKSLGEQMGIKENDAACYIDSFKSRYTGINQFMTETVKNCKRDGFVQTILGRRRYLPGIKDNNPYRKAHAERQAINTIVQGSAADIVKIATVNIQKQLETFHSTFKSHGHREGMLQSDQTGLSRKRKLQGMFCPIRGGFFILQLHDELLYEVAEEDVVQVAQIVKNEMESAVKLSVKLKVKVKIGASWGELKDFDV

For `COc1cnc(Cl)cc1-c1cc(C)ncc1C(=O)Nc1nnc(OCc2ccc(Cl)cn2)s1`, the concentration for half-maximal inhibition (IC50) in experiment [1] was no more than 0.2 µM.

The molecule `Cc1nc(NCC(=O)N(C)c2ccccc2)c(C#N)c(C)c1Cl` came in with a concentration for half-maximal inhibition (IC50) in experiment [2] of less than 0.2 µM.

As to `CN(C(=O)[C@@H]1CCCN1c1cc(C(F)(F)F)ccn1)c1ccc(F)cc1`, in experiment [2], the IC50 was less than 0.2 µM.

Take `Cc1cc(C(F)(F)F)cc(N2C(=O)OC[C@H]2c2nc(Cl)cn2-c2ccc(F)c(Cl)c2)n1`: in [3], the IC50 came to 0.005 µM.

Consider `COc1cccc(-c2cc(C(=O)N[C@H]3CC[C@H](c4ccc(OC5CCNCC5)cc4)CC3)ccc2OC)c1`, for which the inhibition in experiment [4] worked out at 70%.

In experiment [2], `Cc1cccc(N(C)C(=O)[C@@H]2CCCN2c2nc(C)cc(C(F)(F)F)c2C#N)c1` had a concentration for half-maximal inhibition (IC50) of less than 0.2 µM.

Take `CN(C(=O)[C@@H]1CCCN1c1cc(C(F)(F)F)cc(C(F)(F)F)n1)c1ccc(F)cc1`: the IC50 in experiment [3] and in experiment [5] was no more than 0.2 µM in each case.

In the case of `N#Cc1c(C(F)(F)F)cc(C(F)(F)F)nc1NCc1nccn1-c1ccc(F)cc1`, the IC50 in experiment [6] was less than 0.2 µM.

`CO[C@@H]1[C@@H](OC(N)=O)[C@@H](O)[C@H](Oc2ccc3c(O)c(NC(=O)c4ccc(O)c(CC=C(C)C)c4)c(=O)oc3c2C)OC1(C)C` [NOVOBIOCIN]: the values for the IC50 in [7], in experiment [8] and in experiment [9] were 86 µM, 358 µM and 97.2 µM, respectively. Further, the “fold change (FC)” value amounted to 20 in experiment [10] and 40 in experiment [11].

`Cc1cc(-c2nc(NC(=O)N[C@H]3CCCNC3)cs2)ccc1OC[C@]1(C)CCOC1` came in with a 50% inhibitory concentration (IC50) in [12] of 0.007 µM.

As to `Cc1c(OC2CCN(C)CC2)ccc2cc(NC(=O)Nc3ccc(C(F)(F)F)cc3)c(=O)oc12`, the 50% inhibitory concentration (IC50) came out at 0.16 µM in experiment [7]; 0.45 µM in [13]; 0.46 µM in [14]; 0.8 µM in experiment [15]; 0.06 µM in experiment [16]; 0.13 µM in experiment [17]. The 50% inhibitory concentration (IC50) in [18] worked out at 0.9 µM. In addition, the inhibition in [4] was 50%.

Take `Cc1nc(NCc2nccn2-c2ccccc2)c(C#N)c(C)c1Cl`: the IC50 in experiment [2] is less than 0.2 µM.

As for `Cc1nc(SCC(=O)N(C)c2ccccc2)c(C#N)c(C)c1Cl`, the IC50 in experiment [3] and in experiment [5] was 0.2 µM in each case.

The molecule `CN(C(=O)CNc1nc(C(F)(F)F)cc(C(F)(F)F)c1C#N)c1ccc(F)cc1` displayed an IC50 in [6] of less than 0.2 µM.

Take `COc1ccccc1-c1cc(C)ncc1C(=O)Nc1nnc(OCc2ccc(Cl)cn2)s1`: the half-maximal inhibitory concentration (IC50) in experiment [1] was no more than 0.2 µM.

Turning to `Cc1ccc(NC(=O)Nc2cncc(-c3ccc(OCC4(C)CCOC4)c(C)c3)n2)cn1` (centres undefined), the midpoint of inhibition in [12], the IC50, lay at 0.002 µM.
